In patent US8445501B2, “Substituted 7-carboxamido-pyrrolo[3,2-d]pyrimidines” (Takeda GmbH, priority 2008, dated 2013):

The compounds below were run against T1, human PDE5 (Homo sapiens, UniProt O76074) (assay: Inhibition of the type 5 phosphodiesterase (PDE5) activity, modified SPA test with platelet lysate). Conditions: PDE5 from human platelet lysate, 0.5 μM cGMP.
T1 construct: from tissue; host or cells: platelets from fresh blood of human donors (lysate, 10,000 g supernatant)
Type: biochemical
Summary of the method: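 SPA-based cGMP hydrolysis, [3H]cGMP tracer in 0.5 μM cGMP, by sonicated human platelet lysate; motapizone (1 μM) and a PDE2 inhibitor (10 nM) block other PDEs. Reaction 15 min at 37 °C after 5 min preincubation, quenched with beads containing IBMX. IC50 from concentration-effect curves.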

In order of rising IC50:
1. COc1ccc(-c2ncnc3c(C(=O)NC4CCN(C(=O)C5(O)CC5)CC4)c[nH]c23)c(OCC2CC2)c1 [Example 207, 4-(2-Cyclopropylmethoxy-4-methoxy-phenyl)-5H-pyrrolo[3,2-d]pyrimidine-7-carboxylic acid {1-[1-(1-hydroxy-cyclopropyl)-methanoyl]-piperidin-4-yl}-amide]  0.245 nM
2. C[C@H](O)C(=O)N1CCCC(CNC(=O)c2c[nH]c3c(-c4c(OCC5CC5)ccc5c4OCO5)ncnc23)C1 (stereo partly drawn) [Example 190, 4-(5-Cyclopropylmethoxy-benzo[1,3]dioxol-4-yl)-5H-pyrrolo[3,2-d]pyrimidine-7-carboxylic acid [1-((S)-2-hydroxy-propionyl)piperidin-3-ylmethyl]-amide]  0.251 nM
3. COc1ccc(-c2ncnc3c(C(=O)N[C@H]4CC[C@@H](NC(=O)C5(O)CC5)CC4)c[nH]c23)c(OCC2CC2)c1 [Example 204, cis-4-(2-Cyclopropylmethoxy-4-methoxy-phenyl)-5H-pyrrolo[3,2-d]pyrimidine-7-carboxylic acid {-[(1-hydroxy-cyclopropanecarbonyl)-amino]-cyclohexyl}-amide]  0.257 nM
4. O=C(NCC1CCCN(C(=O)CO)C1)c1c[nH]c2c(-c3c(OCC4CC4)ccc4c3OCO4)ncnc12 (centres unmarked) [Example 189, 4-(5-Cyclopropylmethoxy-benzo[1,3]dioxol-4-yl)-5H-pyrrolo[3,2-d]pyrimidine-7-carboxylic acid [1-(2-hydroxy-acetyl)piperidin-3-ylmethyl]-amide]  0.389 nM
5. COc1ccc(-c2ncnc3c(C(=O)N[C@H]4CC[C@@H](NC(=O)[C@H](C)O)CC4)c[nH]c23)c(OCC2CC2)c1 [Example 203, cis-4-(2-Cyclopropylmethoxy-4-methoxy-phenyl)-5H-pyrrolo[3,2-d]pyrimidine-7-carboxylic acid [4-((S)-2-hydroxy-propionylamino)-cyclohexyl]-amide]  0.389 nM
6. COc1ccc(-c2ncnc3c(C(=O)N[C@H]4CC[C@H](NC(=O)C5(O)CC5)CC4)c[nH]c23)c(OCC2CC2)c1 [Example 201, trans-4-(2-Cyclopropylmethoxy-4-methoxy-phenyl)-5H-pyrrolo[3,2-d]pyrimidine-7-carboxylic acid {4-[(1-hydroxy-cyclopropanecarbonyl)-amino]-cyclohexyl}-amide]  0.407 nM
7. C[C@H](O)C(=O)N1CCC(CNC(=O)c2c[nH]c3c(-c4c(OCC5CC5)ccc5c4OCO5)ncnc23)CC1 [Example 187, 4-(5-Cyclopropylmethoxy-benzo[1,3]dioxol-4-yl)-5H-pyrrolo[3,2-d]pyrimidine-7-carboxylic acid [1-((S)-2-hydroxy-propanoyl)piperidin-4-ylmethyl]-amide]  0.457 nM
8. COc1ccc(-c2ncnc3c(C(=O)N[C@H]4CC[C@H](NC(=O)[C@H](C)O)CC4)c[nH]c23)c(OCC2CC2)c1 [Example 200, trans-4-(2-Cyclopropylmethoxy-4-methoxy-phenyl)-5H-pyrrolo[3,2-d]pyrimidine-7-carboxylic acid [4-((S)-2-hydroxy-propionylamino)-cyclohexyl]-amide]  0.479 nM
9. O=C(NCC1CCN(C(=O)C2(O)CC2)CC1)c1c[nH]c2c(-c3c(OCC4CC4)ccc4c3OCO4)ncnc12 [Example 188, 4-(5-Cyclopropylmethoxy-benzo[1,3]dioxol-4-yl)-5H-pyrrolo[3,2-d]pyrimidine-7-carboxylic acid {1-[1-(1-hydroxy-cyclopropyl)-methanoyl]-piperidin-4-ylmethyl}-amide]  0.513 nM
10. O=C(NCC1CCN(C(=O)CO)CC1)c1c[nH]c2c(-c3c(OCC4CC4)ccc4c3OCO4)ncnc12 [Example 186, 4-(5-Cyclopropylmethoxy-benzo[1,3]dioxol-4-yl)-5H-pyrrolo[3,2-d]pyrimidine-7-carboxylic acid [1-(2-hydroxy-ethanoyl)-piperidin-4-ylmethyl]-amide]  0.55 nM
11. COc1ccc(-c2ncnc3c(C(=O)N[C@H]4CC[C@H](NC(=O)CO)CC4)c[nH]c23)c(OCC2CC2)c1 [Example 199, trans-4-(2-Cyclopropylmethoxy-4-methoxy-phenyl)-5H-pyrrolo[3,2-d]pyrimidine-7-carboxylic acid [4-(2-hydroxy-acetylamino)-cyclohexyl]-amide]  0.589 nM
12. C[C@H](O)C(=O)N1CCC[C@@H](NC(=O)c2c[nH]c3c(-c4c(OCC5CC5)ccc5c4OCO5)ncnc23)C1 [Example 198, 4-(5-Cyclopropylmethoxy-benzo[1,3]dioxol-4-yl)-5H-pyrrolo[3,2-d]pyrimidine-7-carboxylic acid [(R)-1-((S)-2-hydroxy-propanoyl)piperidin-3-yl]-amide]  0.617 nM
13. COc1ccc(OCC2CC2)c(-c2ncnc3c(C(=O)N[C@H]4CC[C@H](NC(=O)C5(O)CC5)CC4)c[nH]c23)c1 [Example 210, trans-4-(2-Cyclopropylmethoxy-5-methoxy-phenyl)-5H-pyrrolo[3,2-d]pyrimidine-7-carboxylic acid {4-[(1-hydroxy-cyclopropanecarbonyl)-amino]-cyclohexyl}-amide]  0.646 nM
14. COc1ccc(-c2ncnc3c(C(=O)NC4CCN(C(=O)[C@H](C)O)CC4)c[nH]c23)c(OCC2CC2)c1 [Example 206, 4-(2-Cyclopropylmethoxy-4-methoxy-phenyl)-5H-pyrrolo[3,2-d]pyrimidine-7-carboxylic acid [1-((S)-2-hydroxy-propanoyl)piperidin-4-yl]-amide]  0.661 nM
15. COc1ccc(OCC2CC2)c(-c2ncnc3c(C(=O)N[C@H]4CC[C@@H](NC(=O)C5(O)CC5)CC4)c[nH]c23)c1 [Example 209, cis-4-(2-Cyclopropylmethoxy-5-methoxy-phenyl)-5H-pyrrolo[3,2-d]pyrimidine-7-carboxylic acid {4-[(1-hydroxy-cyclopropanecarbonyl)-amino]-cyclohexyl}-amide]  0.692 nM
16. COc1ccc(-c2ncnc3c(C(=O)N[C@H]4CC[C@@H](NC(=O)CO)CC4)c[nH]c23)c(OCC2CC2)c1 [Example 202, cis-4-(2-Cyclopropylmethoxy-4-methoxy-phenyl)-5H-pyrrolo[3,2-d]pyrimidine-7-carboxylic acid [4-(2-hydroxy-acetylamino)-cyclohexyl]-amide]  0.741 nM
17. C[C@H](O)C(=O)N1CC(NC(=O)c2c[nH]c3c(-c4c(OCC5CC5)ccc5c4OCO5)ncnc23)C1 [Example 196, 4-(5-Cyclopropylmethoxy-benzo[1,3]dioxol-4-yl)-5H-pyrrolo[3,2-d]pyrimidine-7-carboxylic acid [1-((S)-2-hydroxy-propanoyl)azetidin-3-yl]-amide]  0.759 nM
18. C[C@H](O)C(=O)N1CCC(CNC(=O)c2c[nH]c3c(-c4c(OCC5CC5)ccc5c4OCO5)ncnc23)C1 (stereo partly drawn) [Example 192, 4-(5-Cyclopropylmethoxy-benzo[1,3]dioxol-4-yl)-5H-pyrrolo[3,2-d]pyrimidine-7-carboxylic acid [1-((S)-2-hydroxy-propionyl)pyrrolidin-3-ylmethyl]-amide]  0.832 nM
19. C[C@H](O)C(=O)N1CCOC(CNC(=O)c2c[nH]c3c(-c4c(OCC5CC5)ccc5c4OCO5)ncnc23)C1 (stereo partly drawn) [Example 194, 4-(5-Cyclopropylmethoxy-benzo[1,3]dioxol-4-yl)-5H-pyrrolo[3,2-d]pyrimidine-7-carboxylic acid [4-((S)-2-hydroxy-propionyl)-morpholin-2-ylmethyl]-amide]  0.832 nM
20. COc1ccc(-c2ncnc3c(C(=O)NC4CCN(C(=O)CO)CC4)c[nH]c23)c(OCC2CC2)c1 [Example 205, 4-(2-Cyclopropylmethoxy-4-methoxy-phenyl)-5H-pyrrolo[3,2-d]pyrimidine-7-carboxylic acid [1-(2-hydroxy-ethanoyl)-piperidin-4-yl]amide]  0.832 nM
21. C[C@H](O)C(=O)N1CCC[C@H](NC(=O)c2c[nH]c3c(-c4c(OCC5CC5)ccc5c4OCO5)ncnc23)C1 [Example 197, 4-(5-Cyclopropylmethoxy-benzo[1,3]dioxol-4-yl)-5H-pyrrolo[3,2-d]pyrimidine-7-carboxylic acid [(S)-1-((S)-2-hydroxy-propanoyl)piperidin-3-yl]-amide]  0.851 nM
22. O=C(NCC1CCN(C(=O)CO)C1)c1c[nH]c2c(-c3c(OCC4CC4)ccc4c3OCO4)ncnc12 (centres unmarked) [Example 191, 4-(5-Cyclopropylmethoxy-benzo[1,3]dioxol-4-yl)-5H-pyrrolo[3,2-d]pyrimidine-7-carboxylic acid [1-(2-hydroxy-acetyl)pyrrolidin-3-ylmethyl]-amide]  1.02 nM
23. O=C(NCC1CN(C(=O)CO)CCO1)c1c[nH]c2c(-c3c(OCC4CC4)ccc4c3OCO4)ncnc12 (centres unmarked) [Example 193, 4-(5-Cyclopropylmethoxy-benzo[1,3]dioxol-4-yl)-5H-pyrrolo[3,2-d]pyrimidine-7-carboxylic acid [4-(2-hydroxy-acetyl)morpholin-2-ylmethyl]-amide]  1.07 nM
24. O=C(NC1CN(C(=O)CO)C1)c1c[nH]c2c(-c3c(OCC4CC4)ccc4c3OCO4)ncnc12 [Example 195, 4-(5-Cyclopropylmethoxy-benzo[1,3]dioxol-4-yl)-5H-pyrrolo[3,2-d]pyrimidine-7-carboxylic acid [1-(2-hydroxy-ethanoyl)-azetidin-3-yl]-amide]  1.32 nM
25. COc1ccc(OCC2CC2)c(-c2ncnc3c(C(=O)N[C@H]4CC[C@@H](NC(=O)CO)CC4)c[nH]c23)c1 [Example 208, cis-4-(2-Cyclopropylmethoxy-5-methoxy-phenyl)-5H-pyrrolo[3,2-d]pyrimidine-7-carboxylic acid [4-(2-hydroxy-acetylamino)-cyclohexyl]-amide]  1.86 nM
26. O=C(N[C@H]1CCN(C(=O)C2(O)CC2)C1)c1c[nH]c2c(-c3c(OCC4CC4)ccc4c3OCO4)ncnc12 [Example 185, 4-(5-Cyclopropylmethoxy-benzo[1,3]dioxol-4-yl)-5H-pyrrolo[3,2-d]pyrimidine-7-carboxylic acid {(S)-1-[1-(1-hydroxy-cyclopropyl)-methanoyl]-pyrrolidin-3-yl}-amide]  2.04 nM
